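Briefly, cells in 96-well plates were exposed to five compound concentrations for 48 h, and endpoints were estimated by linear interpolation. The concentration for 50% growth inhibition is given as GI50. At the TGI there is no net growth.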
Columns and labels:
Assay in all cases: growth of human tumour cells (NCI), 48 h
HCT-15 colon = test system: HCT-15 colon
HCC-2998 colon = test system: HCC-2998 colon
KM12 colon = test system: KM12 colon
CAKI-1 renal = test system: CAKI-1 renal
LOX IMVI melanoma = test system: LOX IMVI melanoma
UACC-62 melanoma = test system: UACC-62 melanoma
EKVX NSCLC = test system: EKVX NSCLC
U251 CNS = test system: U251 CNS
SK-MEL-2 melanoma = test system: SK-MEL-2 melanoma
NCI-H522 lung = test system: NCI-H522 lung
SR leukemia = test system: SR leukemia
RPMI-8226 leukemia = test system: RPMI-8226 leukemia
KM20L2 colon = test system: KM20L2 colon
HOP-18 NSCLC = test system: HOP-18 NSCLC
UO-31 renal = test system: UO-31 renal
LXFL 529 NSCLC = test system: LXFL 529 NSCLC
SK-MEL-28 melanoma = test system: SK-MEL-28 melanoma
A549 NSCLC = test system: A549 NSCLC
NCI-H23 lung = test system: NCI-H23 lung
RXF-631 renal = test system: RXF-631 renal
SF-268 CNS = test system: SF-268 CNS
786-0 renal = test system: 786-0 renal
NCI-H460 lung = test system: NCI-H460 lung
SW-620 colon = test system: SW-620 colon
DMS 114 small cell lung = test system: DMS 114 small cell lung
DLD-1 colon = test system: DLD-1 colon
DMS 273 small cell lung = test system: DMS 273 small cell lung
OVCAR-5 ovarian = test system: OVCAR-5 ovarian
SN12C renal = test system: SN12C renal
M14 melanoma = test system: M14 melanoma
SK-MEL-5 melanoma = test system: SK-MEL-5 melanoma
SF-539 CNS = test system: SF-539 CNS
OVCAR-8 ovarian = test system: OVCAR-8 ovarian
COLO 205 colon = test system: COLO 205 colon
OVCAR-4 ovarian = test system: OVCAR-4 ovarian
IGROV1 ovarian = test system: IGROV1 ovarian
MALME-3M melanoma = test system: MALME-3M melanoma
XF 498 CNS = test system: XF 498 CNS
SNB-75 CNS = test system: SNB-75 CNS
M19-MEL melanoma = test system: M19-MEL melanoma
NCI-H226 lung = test system: NCI-H226 lung
HCT-116 colon = test system: HCT-116 colon
SF-295 CNS = test system: SF-295 CNS
RXF 393 renal = test system: RXF 393 renal
SNB-19 CNS = test system: SNB-19 CNS
TK-10 renal = test system: TK-10 renal
OVCAR-3 ovarian = test system: OVCAR-3 ovarian
ACHN renal = test system: ACHN renal
SK-OV-3 ovarian = test system: SK-OV-3 ovarian
UACC-257 melanoma = test system: UACC-257 melanoma
SNB-78 CNS = test system: SNB-78 CNS
HOP-92 NSCLC = test system: HOP-92 NSCLC
HL-60(TB) leukemia = test system: HL-60(TB) leukemia
HT29 colon = test system: HT29 colon
CCRF-CEM leukemia = test system: CCRF-CEM leukemia
K-562 leukemia = test system: K-562 leukemia
MOLT-4 leukemia = test system: MOLT-4 leukemia
HOP-62 NSCLC = test system: HOP-62 NSCLC

CC(C)(C)N=Cc1ccccc1[O-].CC(C)(C)N=Cc1ccccc1[O-].[Co+2]
GI50 (HCT-15 colon): > 100 µM
TGI (HCT-15 colon): > 100 µM
GI50 (HCC-2998 colon): > 100 µM
TGI (HCC-2998 colon): > 100 µM
GI50 (KM12 colon): > 100 µM
TGI (KM12 colon): > 100 µM
GI50 (CAKI-1 renal): 59.3 µM
TGI (CAKI-1 renal): > 100 µM
GI50 (LOX IMVI melanoma): > 100 µM
TGI (LOX IMVI melanoma): > 100 µM
GI50 (UACC-62 melanoma): 12.1 µM
TGI (UACC-62 melanoma): > 100 µM
GI50 (EKVX NSCLC): 60.7 µM
TGI (EKVX NSCLC): > 100 µM
GI50 (U251 CNS): 58.2 µM
TGI (U251 CNS): > 100 µM
GI50 (SK-MEL-2 melanoma): > 100 µM
TGI (SK-MEL-2 melanoma): > 100 µM
GI50 (NCI-H522 lung): 30.3 µM
TGI (NCI-H522 lung): > 100 µM
GI50 (SR leukemia): 6.3 µM
TGI (SR leukemia): > 100 µM
GI50 (RPMI-8226 leukemia): 18 µM
TGI (RPMI-8226 leukemia): > 100 µM
GI50 (KM20L2 colon): 72.8 µM
TGI (KM20L2 colon): > 100 µM
GI50 (HOP-18 NSCLC): 7.08 µM
TGI (HOP-18 NSCLC): 83 µM
GI50 (UO-31 renal): 18.8 µM
TGI (UO-31 renal): > 100 µM
GI50 (LXFL 529 NSCLC): 83.9 µM
TGI (LXFL 529 NSCLC): > 100 µM
GI50 (SK-MEL-28 melanoma): 55.8 µM
TGI (SK-MEL-28 melanoma): > 100 µM
GI50 (A549 NSCLC): > 100 µM
TGI (A549 NSCLC): > 100 µM
GI50 (NCI-H23 lung): 8.39 µM
TGI (NCI-H23 lung): > 100 µM
GI50 (RXF-631 renal): 23.2 µM
TGI (RXF-631 renal): > 100 µM
GI50 (SF-268 CNS): 60.7 µM
TGI (SF-268 CNS): > 100 µM
GI50 (786-0 renal): 72.4 µM
TGI (786-0 renal): > 100 µM
GI50 (NCI-H460 lung): > 100 µM
TGI (NCI-H460 lung): > 100 µM
GI50 (SW-620 colon): 70.3 µM
TGI (SW-620 colon): > 100 µM
GI50 (DMS 114 small cell lung): 26.1 µM
TGI (DMS 114 small cell lung): > 100 µM
GI50 (DLD-1 colon): 52.7 µM
TGI (DLD-1 colon): > 100 µM
GI50 (DMS 273 small cell lung): 37.2 µM
TGI (DMS 273 small cell lung): > 100 µM
GI50 (OVCAR-5 ovarian): 3.31 µM
TGI (OVCAR-5 ovarian): > 100 µM
GI50 (SN12C renal): > 100 µM
TGI (SN12C renal): > 100 µM
GI50 (M14 melanoma): 30.2 µM
TGI (M14 melanoma): > 100 µM
GI50 (SK-MEL-5 melanoma): 89.4 µM
TGI (SK-MEL-5 melanoma): > 100 µM
GI50 (SF-539 CNS): > 100 µM
TGI (SF-539 CNS): > 100 µM
GI50 (OVCAR-8 ovarian): 76.7 µM
TGI (OVCAR-8 ovarian): > 100 µM
GI50 (COLO 205 colon): 45.3 µM
TGI (COLO 205 colon): > 100 µM
GI50 (OVCAR-4 ovarian): 56.5 µM
TGI (OVCAR-4 ovarian): > 100 µM
GI50 (IGROV1 ovarian): 22.8 µM
TGI (IGROV1 ovarian): > 100 µM
GI50 (MALME-3M melanoma): 93.5 µM
TGI (MALME-3M melanoma): > 100 µM
GI50 (XF 498 CNS): > 100 µM
TGI (XF 498 CNS): > 100 µM
GI50 (SNB-75 CNS): > 100 µM
TGI (SNB-75 CNS): > 100 µM
GI50 (M19-MEL melanoma): 54.4 µM
TGI (M19-MEL melanoma): > 100 µM
GI50 (NCI-H226 lung): 21.9 µM
TGI (NCI-H226 lung): > 100 µM
GI50 (HCT-116 colon): 80.4 µM
TGI (HCT-116 colon): > 100 µM
GI50 (SF-295 CNS): > 100 µM
TGI (SF-295 CNS): > 100 µM
GI50 (RXF 393 renal): > 100 µM
TGI (RXF 393 renal): > 100 µM
GI50 (SNB-19 CNS): > 100 µM
TGI (SNB-19 CNS): > 100 µM
GI50 (TK-10 renal): 44.5 µM
TGI (TK-10 renal): > 100 µM
GI50 (OVCAR-3 ovarian): 17.4 µM
TGI (OVCAR-3 ovarian): > 100 µM

Cc1ccc(S(=O)(=O)O/N=C2\CCC\C2=C/c2ccccc2)cc1
TGI (HCT-15 colon): 73.8 µM
TGI (HCC-2998 colon): 31.6 µM
TGI (KM12 colon): 32.6 µM
TGI (CAKI-1 renal): 36.8 µM
TGI (LOX IMVI melanoma): > 100 µM
TGI (UACC-62 melanoma): 27.2 µM
TGI (EKVX NSCLC): 35.3 µM
TGI (U251 CNS): 88.6 µM
TGI (SK-MEL-2 melanoma): 30.8 µM
TGI (NCI-H522 lung): 37.8 µM
TGI (SR leukemia): 43.4 µM
TGI (RPMI-8226 leukemia): 37.3 µM
TGI (KM20L2 colon): 49 µM
TGI (HOP-18 NSCLC): 34.6 µM
TGI (UO-31 renal): 42.5 µM
TGI (LXFL 529 NSCLC): 83.9 µM
TGI (ACHN renal): 23.3 µM
TGI (SK-MEL-28 melanoma): 24.1 µM
TGI (SK-OV-3 ovarian): > 100 µM
TGI (A549 NSCLC): > 100 µM
TGI (NCI-H23 lung): 38.9 µM
TGI (UACC-257 melanoma): 31.4 µM
TGI (RXF-631 renal): 36.5 µM
TGI (SF-268 CNS): 27.7 µM
TGI (786-0 renal): 67.9 µM
TGI (SNB-78 CNS): 13 µM
TGI (NCI-H460 lung): 47.9 µM
TGI (SW-620 colon): > 100 µM
TGI (HOP-92 NSCLC): 34.5 µM
TGI (DLD-1 colon): 46.3 µM
TGI (DMS 273 small cell lung): > 100 µM
TGI (HL-60(TB) leukemia): > 100 µM
TGI (OVCAR-5 ovarian): 42.6 µM
TGI (SN12C renal): > 100 µM
TGI (M14 melanoma): 47.4 µM
TGI (SK-MEL-5 melanoma): 28.4 µM
TGI (SF-539 CNS): 43.5 µM
TGI (HT29 colon): 60.1 µM
TGI (OVCAR-8 ovarian): > 100 µM
TGI (COLO 205 colon): 29.8 µM
TGI (OVCAR-4 ovarian): 58.6 µM
TGI (IGROV1 ovarian): > 100 µM
TGI (CCRF-CEM leukemia): > 100 µM
TGI (XF 498 CNS): 33.3 µM
TGI (SNB-75 CNS): 44.1 µM
TGI (K-562 leukemia): > 100 µM
TGI (M19-MEL melanoma): 44.3 µM
TGI (NCI-H226 lung): 37.7 µM
TGI (HCT-116 colon): 25.3 µM
TGI (MOLT-4 leukemia): 29.2 µM
TGI (SF-295 CNS): 50.1 µM
TGI (RXF 393 renal): 44 µM
TGI (SNB-19 CNS): > 100 µM
TGI (HOP-62 NSCLC): > 100 µM
TGI (TK-10 renal): 30.4 µM
TGI (OVCAR-3 ovarian): 32.8 µM
